# Values quoted from earlier work, collected in PubChem BioAssay AID1259409 (Chemical Carcinogenesis Research Information System (CCRIS), 2018).
# Test system: rodent chemically induced tumor inhibition, incidence and multiplicity
# Assay: CCRIS tumor inhibitor studies
# Conditions: Dose [Inhibitor]: 0, Route [Inhibitor]: ORAL, Species: RAT, Strain/Sex: F344/MALE
smiles,measurement,setting,value
C=C[C@H](OC(C)=O)c1ccc(OC(C)=O)cc1,"tumour outcome (control, treated, inhibition, significance)","Carcinogen: 4-NITROQUINOLINE-1-OXIDE, 56-57-5, 100 PPM IN DIET FOR 10 WK BEGINNING 1 WK PRIOR TO CARCINOGEN TREATMENT (STUDY DURATION: 32 WK), Target Tissue: Type of Lesion: TONGUE: PAPILLOMA OR CARCINOMA, Dose [Carcinogen]: 20 PPM IN DRINKING WATER FOR 8 WK, Promoter: NONE USED","14/24 (58%), 0/20 (0%), 100%, p<0.001"
same,"tumour outcome (control, treated, inhibition, significance)","Carcinogen: 4-NITROQUINOLINE-1-OXIDE, 56-57-5, 100 PPM IN DIET FOR 22 WK BEGINNING 1 WK POST CARCINOGEN TREATMENT (STUDY DURATION: 32 WK), Target Tissue: Type of Lesion: TONGUE: PAPILLOMA OR CARCINOMA, Dose [Carcinogen]: 20 PPM IN DRINKING WATER FOR 8 WK, Promoter: NONE USED","14/24 (58%), 0/20 (0%), 100%, p<0.001"
same,"tumour outcome (control, treated, inhibition, significance)","Carcinogen: 4-NITROQUINOLINE-1-OXIDE, 56-57-5, 500 PPM IN DIET FOR 10 WK BEGINNING 1 WK PRIOR TO CARCINOGEN TREATMENT (STUDY DURATION: 32 WK), Target Tissue: Type of Lesion: TONGUE: PAPILLOMA OR CARCINOMA, Dose [Carcinogen]: 20 PPM IN DRINKING WATER FOR 8 WK, Promoter: NONE USED","14/24 (58%), 2/23 (9%), 84%, p<0.001"
same,"tumour outcome (control, treated, inhibition, significance)","Carcinogen: 4-NITROQUINOLINE-1-OXIDE, 56-57-5, 500 PPM IN DIET FOR 22 WK BEGINNING 1 WK POST CARCINOGEN TREATMENT (STUDY DURATION: 32 WK), Target Tissue: Type of Lesion: TONGUE: PAPILLOMA OR CARCINOMA, Dose [Carcinogen]: 20 PPM IN DRINKING WATER FOR 8 WK, Promoter: NONE USED","14/24 (58%), 0/23 (0%), 100%, p<0.001"
same,"tumour outcome (control, treated, inhibition, significance)","Carcinogen: AZOXYMETHANE, 25843-45-2, 0.01% IN DIET FOR 4 WK BEGINNING 1 WK PRIOR TO CARCINOGEN TREATMENT (STUDY DURATION: 38 WK), Target Tissue: Type of Lesion: COLON: ADENOCARCINOMA, Dose [Carcinogen]: 15 MG/KG BW 1/WK FOR 3 WK, Promoter: NONE","70%, 33%, 53%, p<0.03"
same,"tumour outcome (control, treated, inhibition, significance)","Carcinogen: AZOXYMETHANE, 25843-45-2, 0.01% IN DIET FOR 34 WK BEGINNING 1 WK POST LAST CARCINOGEN DOSE (STUDY DURATION: 38 WK), Target Tissue: Type of Lesion: COLON: ADENOCARCINOMA, Dose [Carcinogen]: 15 MG/KG BW 1/WK FOR 3 WK, Promoter: NONE","70%, 38%, 46%, not significant"
same,"tumour outcome (control, treated, inhibition, significance)","Carcinogen: AZOXYMETHANE, 25843-45-2, 0.02% IN DIET FOR 4 WK BEGINNING 1 WK PRIOR TO CARCINOGEN TREATMENT (STUDY DURATION: 38 WK), Target Tissue: Type of Lesion: COLON: ADENOCARCINOMA, Dose [Carcinogen]: 15 MG/KG BW 1/WK FOR 3 WK, Promoter: NONE","70%, 17%, 76%, p<0.001"
same,"tumour outcome (control, treated, inhibition, significance)","Carcinogen: AZOXYMETHANE, 25843-45-2, 0.02% IN DIET FOR 34 WK BEGINNING 1 WK POST LAST CARCINOGEN DOSE (STUDY DURATION: 38 WK), Target Tissue: Type of Lesion: COLON: ADENOCARCINOMA, Dose [Carcinogen]: 15 MG/KG BW 1/WK FOR 3 WK, Promoter: NONE","70%, 6%, 91%, p<0.00003"
same,"tumour outcome (control, treated, inhibition, significance)","Carcinogen: AZOXYMETHANE, 25843-45-2, 100 PPM IN DIET FOR 4 WK BEGINNING 1 WK PRIOR TO CARCINOGEN TREATMENT (STUDY DURATION: 38 WK), Target Tissue: Type of Lesion: LARGE INTESTINE: TUMOR, Dose [Carcinogen]: 15 MG/KG BW 1/WK FOR 3 WK, Promoter: NONE USED","12/17 (71%), 7/18 (39%), 45%, not significant"
same,"tumour outcome (control, treated, inhibition, significance)","Carcinogen: AZOXYMETHANE, 25843-45-2, 100 PPM IN DIET FOR 4 WK BEGINNING 1 WK PRIOR TO CARCINOGEN TREATMENT (STUDY DURATION: 38 WK), Target Tissue: Type of Lesion: SMALL INTESTINE: TUMOR, Dose [Carcinogen]: 15 MG/KG BW 1/WK FOR 3 WK, Promoter: NONE USED","5/17 (29%), 3/18 (17%), 41%, not significant"
same,"tumour outcome (control, treated, inhibition, significance)","Carcinogen: AZOXYMETHANE, 25843-45-2, 100 PPM IN DIET FOR 34 WK BEGINNING 1 WK POST CARCINOGEN TREATMENT (STUDY DURATION: 38 WK), Target Tissue: Type of Lesion: LARGE INTESTINE: TUMOR, Dose [Carcinogen]: 15 MG/KG BW 1/WK FOR 3 WK, Promoter: NONE USED","12/17 (71%), 9/18 (50%), 30%, not significant"
same,"tumour outcome (control, treated, inhibition, significance)","Carcinogen: AZOXYMETHANE, 25843-45-2, 100 PPM IN DIET FOR 34 WK BEGINNING 1 WK POST CARCINOGEN TREATMENT (STUDY DURATION: 38 WK), Target Tissue: Type of Lesion: SMALL INTESTINE: TUMOR, Dose [Carcinogen]: 15 MG/KG BW 1/WK FOR 3 WK, Promoter: NONE USED","5/17 (29%), 4/18 (22%), 24%, not significant"
same,"tumour outcome (control, treated, inhibition, significance)","Carcinogen: AZOXYMETHANE, 25843-45-2, 500 PPM IN DIET FOR 4 WK BEGINNING 1 WK PRIOR TO CARCINOGEN TREATMENT (STUDY DURATION: 38 WK), Target Tissue: Type of Lesion: LARGE INTESTINE: TUMOR, Dose [Carcinogen]: 15 MG/KG BW 1/WK FOR 3 WK, Promoter: NONE USED","12/17 (71%), 8/19 (42%), 41%, not significant"
same,"tumour outcome (control, treated, inhibition, significance)","Carcinogen: AZOXYMETHANE, 25843-45-2, 500 PPM IN DIET FOR 4 WK BEGINNING 1 WK PRIOR TO CARCINOGEN TREATMENT (STUDY DURATION: 38 WK), Target Tissue: Type of Lesion: SMALL INTESTINE: TUMOR, Dose [Carcinogen]: 15 MG/KG BW 1/WK FOR 3 WK, Promoter: NONE USED","5/17 (29%), 5/19 (26%), 10%, not significant"
same,"tumour outcome (control, treated, inhibition, significance)","Carcinogen: AZOXYMETHANE, 25843-45-2, 500 PPM IN DIET FOR 34 WK BEGINNING 1 WK POST CARCINOGEN TREATMENT (STUDY DURATION: 38 WK), Target Tissue: Type of Lesion: LARGE INTESTINE: TUMOR, Dose [Carcinogen]: 15 MG/KG BW 1/WK FOR 3 WK, Promoter: NONE USED","12/17 (71%), 4/20 (20%), 72%, p=0.002"
same,"tumour outcome (control, treated, inhibition, significance)","Carcinogen: AZOXYMETHANE, 25843-45-2, 500 PPM IN DIET FOR 34 WK BEGINNING 1 WK POST CARCINOGEN TREATMENT (STUDY DURATION: 38 WK), Target Tissue: Type of Lesion: SMALL INTESTINE: TUMOR, Dose [Carcinogen]: 15 MG/KG BW 1/WK FOR 3 WK, Promoter: NONE USED","5/17 (29%), 2/20 (10%), 66%, not significant"
